Test results as given in patent US12357596B2, “Compounds for prevention and treatment of obesity and related disorders” (ABREXA PHARMACEUTICALS, INC., priority 2019, dated 2025).
Marks after values point to notes of the source that are not given here.

Experiments:
[1] = Oral gavage study up to 28 days at 0, 30, 100 and 300 mg/kg/day (body weight, food consumption); assay type: in vivo, beagle dogs
Experimental: (§1) J147 or vehicle was administered once daily to beagle dogs via oral gavage for up to 28 days at a daily dose of 0, 30, 100 and 300 mg/kg. J174 was prepared in a vehicle formulation comprising 5% ethanol, 5% DMSO and 90% corn oil (v/v/v). Block Lab Diet (Certified Canine Diet #5007, PMI Nutrition International, Inc.) was offered via limited feedings, except during designated periods. The animals were offered food 2 hours post-dose on each dosing day for 2 to 5 hours. Food was offered 2 to 5 hours/day during the acclimation period and during the recovery period. Tap water was available ad libitum via an automatic watering system. The study protocol is shown below in Table 9.

[2] = 28-Day Oral (Gavage) Toxicity Study in Beagle Dogs with a 14-Day Recovery Period at 0, 1, 10 and 30 mg/kg/day (body weight); assay type: in vivo
Experimental: as §1, with “J147” for “J147 or vehicle”, “1, 10” for “30, 100”, “30” for “300”, “postdose” for “post-dose”, “10.” for “9.”

[3] = Toxicokinetics in satellite animals of the 28-day oral gavage study (plasma, Day 1); assay type: in vivo, Sprague-Dawley rats; conditions: Sprague-Dawley, rat, Day 1, 30 mg/kg/day (NOAEL), for information only (ISR failed)
Experimental: J147 or vehicle was administered once daily to Sprague-Dawley rats via oral gavage for 28 consecutive days at a daily dose of 0, 30, 100 or 300 mg/kg. J174 was prepared in a vehicle formulation comprising 5% ethanol, 5% DMSO and 90% corn oil (v/v/v). Certified rodent diet and water was available ad libitum. Groups 1-4 contained 10 animals/sex/group. Groups 1 (control) and 4 (high dose) also included an additional 5 animals/sex/group for use as recovery animals. The recovery animals were maintained on study for a 14-day postdosing recovery period. Animals in Groups 1-4 were monitored for morbidity and mortality, clinical signs, detailed clinical observations, body weight, food consumption, ophthalmologic parameters, neurobehavioral assessment consisting of a Functional Observational Battery (FOB) and a motor activity test, hematology, coagulation, serum chemistry, and urinalysis parameters. Postmortem assessment included necropsy, measurement of selected organ weights, and microscopic evaluation of a standard set of tissues. Plasma samples for bioanalysis were collected on Days 1 and 28 from satellite toxicokinetic animals in Groups 5 through 8. Animals in these groups were euthanized following the last blood sampling and carcasses were discarded without examination. The study protocol is shown below in Table 1.
Additionally, analysis of Day 28 samples also occurred outside the known long-term stability (LTS) range of the validated bioanalytical method. Thus, the bioanalytical and toxicokinetic results for J147 are considered to be for information only. The bioanalytical and toxicokinetic analysis results should also be considered in light of the fact that Day 28 samples were analyzed outside of their LTS.
Given that there was clear evidence of toxicity at the mid and high dose groups, the Study Director believes that this study met the objective of examining the toxicity profile of J147. […] Under the conditions of this study, the no-observed-adverse-effect-level (NOAEL) for J147 was considered to be 30 mg/kg/day. […] Cmax and AUC0-last values should be considered in light of the caveats mentioned in the preceding paragraph. The lowest-observed-adverse-effect-level (LOAEL) is 100 mg/kg/day in both sexes based on test article-related decreases in body weight/body weight gain and food consumption, decreased activity, decreases in measures of red blood cell mass, decreased prothrombin time, decreased serum glucose and triglycerides, decreased thymus weights, and single cell necrosis of pancreatic acinar cells in males.

[4] = dogs, all J147-treated groups (30, 100, 300 mg/kg/day), both sexes
[5] = female dogs, 30 mg/kg/day, Day 28
[6] = female dogs, 100 mg/kg/day, Day 28
[7] = female dogs, 300 mg/kg/day, Day 21 versus the Day 28 control value
[8] = male dogs, 30 mg/kg/day, Day 28
[9] = male dogs, 100 mg/kg/day, Day 28
[10] = male dogs, 300 mg/kg/day, Day 22 versus the Day 28 control value

SMILES: COc1cccc(/C=N/N(C(=O)C(F)(F)F)c2ccc(C)cc2C)c1 [J147]
- Body weight and body weight gain compared to the vehicle-treated control group [1, 4]: decreased
- Food consumption compared to the vehicle-treated control group [1, 4]: decreased
- Decrease of group mean body weight [1, 5]: 19%
- Decrease of group mean food consumption [1, 5]: 45%
- Decrease of group mean body weight [1, 6]: 21%
- Decrease of group mean food consumption [1, 6]: 48%
- Decrease of group mean body weight [1, 7]: 23%
- Decrease of group mean food consumption [1, 7]: 38%
- Decrease of group mean body weight [1, 8]: 23%
- Decrease of group mean food consumption [1, 8]: 31%
- Decrease of group mean body weight [1, 9]: 26%
- Decrease of group mean food consumption [1, 9]: 39%
- Decrease of group mean body weight [1, 10]: 18%
- Decrease of group mean food consumption [1, 10]: 48%
- Conclusion on body weight ([2]; dogs, 28-day oral gavage): induces weight loss and inhibits weight gain
- Body weight and food consumption finding ([2]; dogs, Groups 3 and 4, 10 mg/kg/day and 30 mg/kg/day): Body weight loss with lower food consumption
- Weight lost compared to pre-test levels (up to) ([2]; dogs, males and females, 10 mg/kg/day): up to −9%
- Body Weight, Mean ([2]; female dogs, 1 mg/kg/day, Day 3): 6.463 kg
- Body Weight, Mean ([2]; female dogs, 1 mg/kg/day, Day 7): 6.513 kg
- Body Weight, Mean ([2]; female dogs, 1 mg/kg/day, Day 10): 6.675 kg
- Body Weight, Mean ([2]; female dogs, 1 mg/kg/day, Day 14): 6.688 kg
- Body Weight, Mean ([2]; female dogs, 1 mg/kg/day, Day 17): 6.763 kg
- Body Weight, Mean ([2]; female dogs, 1 mg/kg/day, Day 21): 6.788 kg
- Body Weight, Mean ([2]; female dogs, 1 mg/kg/day, Day 24): 6.813 kg
- Body Weight, Mean ([2]; female dogs, 1 mg/kg/day, Day 28): 6.813 kg
- Body Weight, Mean ([2]; female dogs, 1 mg/kg/day, Day −1 (pre-dose)): 6.413 kg
- Animals that lost weight ([2]; female dogs, 10 mg/kg/day): 4 of 4
- Body Weight, Mean ([2]; female dogs, 10 mg/kg/day, Day 3): 6.363 kg
- Body Weight, Mean ([2]; female dogs, 10 mg/kg/day, Day 7): 6.250 kg
- Body Weight, Mean ([2]; female dogs, 10 mg/kg/day, Day 10): 6.275 kg
- Body Weight, Mean ([2]; female dogs, 10 mg/kg/day, Day 14): 6.150 kg
- Body Weight, Mean ([2]; female dogs, 10 mg/kg/day, Day 17): 6.163 kg
- Body Weight, Mean ([2]; female dogs, 10 mg/kg/day, Day 21): 6.063 kg
- Body Weight, Mean ([2]; female dogs, 10 mg/kg/day, Day 24): 6.038 kg
- Body Weight, Mean ([2]; female dogs, 10 mg/kg/day, Day 28): 5.988 kg
- Body Weight, Mean ([2]; female dogs, 10 mg/kg/day, Day −1 (pre-dose)): 6.325 kg
- Animals that lost weight ([2]; female dogs, 30 mg/kg/day): 6 of 6
- Weight lost, of pretest levels (up to) ([2]; female dogs, 30 mg/kg/day): ≤ −17%
- Body Weight, Mean ([2]; female dogs, 30 mg/kg/day, Day 3): 6.308 kg
- Body Weight, Mean ([2]; female dogs, 30 mg/kg/day, Day 7): 6.242 kg
- Body Weight, Mean ([2]; female dogs, 30 mg/kg/day, Day 10): 6.192 kg
- Body Weight, Mean ([2]; female dogs, 30 mg/kg/day, Day 14): 6.033 kg
- Body Weight, Mean ([2]; female dogs, 30 mg/kg/day, Day 17): 5.858^a kg
- Body Weight, Mean ([2]; female dogs, 30 mg/kg/day, Day 21): 5.700^b kg
- Body Weight, Mean ([2]; female dogs, 30 mg/kg/day, Day 24): 5.575^b kg
- Body Weight, Mean [2, 5]: 5.525^b kg
- Body Weight, Mean ([2]; female dogs, 30 mg/kg/day, Day −1 (pre-dose)): 6.258 kg
- Body Weight, Mean ([2]; male dogs, 1 mg/kg/day, Day 3): 7.850 kg
- Body Weight, Mean ([2]; male dogs, 1 mg/kg/day, Day 7): 7.838 kg
- Body Weight, Mean ([2]; male dogs, 1 mg/kg/day, Day 10): 8.000 kg
- Body Weight, Mean ([2]; male dogs, 1 mg/kg/day, Day 14): 8.000 kg
- Body Weight, Mean ([2]; male dogs, 1 mg/kg/day, Day 17): 8.075 kg
- Body Weight, Mean ([2]; male dogs, 1 mg/kg/day, Day 21): 8.200 kg
- Body Weight, Mean ([2]; male dogs, 1 mg/kg/day, Day 24): 8.325 kg
- Body Weight, Mean ([2]; male dogs, 1 mg/kg/day, Day 28): 8.250 kg
- Body Weight, Mean ([2]; male dogs, 1 mg/kg/day, Day −1 (pre-dose)): 7.813 kg
- Animals that lost weight ([2]; male dogs, 10 mg/kg/day): 3 of 4
- Body Weight, Mean ([2]; male dogs, 10 mg/kg/day, Day 3): 7.588 kg
- Body Weight, Mean ([2]; male dogs, 10 mg/kg/day, Day 7): 7.675 kg
- Body Weight, Mean ([2]; male dogs, 10 mg/kg/day, Day 10): 7.763 kg
- Body Weight, Mean ([2]; male dogs, 10 mg/kg/day, Day 14): 7.625 kg
- Body Weight, Mean ([2]; male dogs, 10 mg/kg/day, Day 17): 7.563 kg
- Body Weight, Mean ([2]; male dogs, 10 mg/kg/day, Day 21): 7.663 kg
- Body Weight, Mean ([2]; male dogs, 10 mg/kg/day, Day 24): 7.638 kg
- Body Weight, Mean ([2]; male dogs, 10 mg/kg/day, Day 28): 7.500 kg
- Body Weight, Mean ([2]; male dogs, 10 mg/kg/day, Day −1 (pre-dose)): 7.563 kg
- Animals that lost weight ([2]; male dogs, 30 mg/kg/day): 5 of 6
- Weight lost, of pretest levels (up to) ([2]; male dogs, 30 mg/kg/day): up to −12%
- Body Weight, Mean ([2]; male dogs, 30 mg/kg/day, Day 3): 7.900 kg
- Body Weight, Mean ([2]; male dogs, 30 mg/kg/day, Day 7): 7.933 kg
- Body Weight, Mean ([2]; male dogs, 30 mg/kg/day, Day 10): 8.008 kg
- Body Weight, Mean ([2]; male dogs, 30 mg/kg/day, Day 14): 7.967 kg
- Body Weight, Mean ([2]; male dogs, 30 mg/kg/day, Day 17): 7.883 kg
- Body Weight, Mean ([2]; male dogs, 30 mg/kg/day, Day 21): 7.800 kg
- Body Weight, Mean ([2]; male dogs, 30 mg/kg/day, Day 24): 7.825 kg
- Body Weight, Mean [2, 8]: 7.600 kg
- Body Weight, Mean ([2]; male dogs, 30 mg/kg/day, Day −1 (pre-dose)): 7.908 kg
- AUC(0-t) ([3]; female rats): 233 ng·h/mL
- Cmax ([3]; female rats): 50.8 ng/mL
- AUC(0-t) ([3]; male rats): 835 ng·h/mL
- Cmax ([3]; male rats): 146 ng/mL
